Source: patent US6890900B2, “Methods for treating or preventing diseases of the oral cavity” (Campina B.V., priority 2001, dated 2005)

What was measured:
Assay in all cases: LF/GMP assay, viable plate count (pour plate) of broth culture
Assay type in all cases: cell-based
Conditions in all cases: for Log Difference: sialic acid 1,000 ppm vs 0 ppm, + = more growth
[1] = test system: Actinobacillus haemophilus ATCC #43717
Procedure: (§1) Bacterial strains used in this study were Pseudomonas aeruginosa ATCC #27853, Streptococcus mutans ATCC #33535, Streptococcus pyogenes ATCC #19615, and Actinobacillus haemophilus ATCC #43717 and an oral swab from a healthy adult. Bacteria were grown on blood/BHT media (Brain Heart Infusion Agar with protease peptone, sodium chloride, glucose, di-sodium phosphate, and agar, Oxoid, Hampshire England, Sheep's Blood) in the presence of 5% CO2 at 35° C. […] One ml of the appropriate bacterial dilution was taken using a sterile pipette and introduced into 8 ml of sterilized BHI broth. […] By pipette, 9 ml of broth was placed into medium test tubes as means of a control and 8 ml test tubes were prepared for the concentration tests). […] This solution was filtered through a 0.45 μm filter. […] To study the kinetics of LF/GMP binding, each strain of bacteria was taken separately with a sterile pipette and placed into an 8 ml BHI broth test tube, vortexed, and incubated in the presence of 1 ml of LF or GMP for 18-24 hours at 35° C. with 5% CO2. In the combination procedure, 0.5 ml of both LF and […] were taken as 1 ml inoculations. One mL of each bacterial strain, plus one mL of sialic acid solution (1,000 ppm) were inoculated into test tubes filled with 8 mL of BHI broth. Each test tube was vortexed, incubated for 24 hours at 35° C. with 5% CO2, and then pour plated in BHI agar to obtain a plate count. This technique was used to determine the density of living (viable) cells in inoculated broth cultures. It involves plating a bacterial sample and counting the resulting colonies after incubation. A serial dilution of the original broth was taken prior to plating. The serial dilution is necessary to reduce the density of organisms in order to create countable plates. Only plates containing between 25 and 250 colonies are considered countable. Cell densities are traditionally recorded as CFU (colony forming unit)/ml. […] Formula: [formula] The assays required the use of a pour plate technique. The pour plate technique adds a step to the conventional serial dilution. The 1 ml of dilution is added to a warm emulsion of dilute nutrient (BHI) agar to produce an agar overlay in the petri plates. After incubation, the bacterial growth covers the entire plate but individual cellular movement has been restricted by the soft agar overlay. Each colony formed is assumed to have originated from a single CFU. The plates were gently mixed, inverted, and incubated for 18-24 hour at 35° C. Using a control (one broth tube inoculated with a bacterial strain, but no LF), the effectiveness of LF was examined. Each test tube containing a specified amount of LF (50, 100, 250, 500, 1,000 ppm and 3000 ppm) was diluted and plates were poured. […] A. haemophilus, S. mutans, S. pyrogenes and an oral culture were tested at 35° C. Pseudomonas aeruginosa was tested at both room temperature and 35° C. with 5% CO2. This was done because P. aeruginosa is not strictly an oral pathogen. It is commonly found in the environment in various conditions. It can be found in the environment and oral intake can cause inflammation in the oral cavity. Most normal oral bacteria are only found in the mouth and are not taken in from outside factors. Therefore, P. aeruginosa is a threat in both temperature settings. […] (see Table 2).

[2] = test system: Streptococcus mutans ATCC #33535
Procedure: as §1

[3] = test system: Pseudomonas aeruginosa ATCC #27853
Procedure: Bacterial strains used in this study were Pseudomonas aeruginosa ATCC #27853, Streptococcus mutans ATCC #33535, Streptococcus pyogenes ATCC #19615, and Actinobacillus haemophilus ATCC #43717 and an oral swab from a healthy adult. Bacteria were grown on blood/BHT media (Brain Heart Infusion Agar with protease peptone, sodium chloride, glucose, di-sodium phosphate, and agar, Oxoid, Hampshire England, Sheep's Blood) in the presence of 5% CO2 at 35° C. Bacteria were harvested by swabbing inoculated growth plates after 24 hours and diluting the colonies in 9 ml of deionized water (DI water) until a suspension of 0.5 McFarland Turbidity Standard was reached using the nephelometer (McFarland Turbidity Meter). The 0.5 McFarland value is approximately equivalent to 1.0×10^8 organisms. One ml of the appropriate bacterial dilution was taken using a sterile pipette and introduced into 8 ml of sterilized BHI broth. (Preparation of BHI broth: 37 g+1,000 ml DI water, Difco Laboratories. By pipette, 9 ml of broth was placed into medium test tubes as means of a control and 8 ml test tubes were prepared for the concentration tests).
This solution was filtered through a 0.45 μm filter. […] Example for calculating 2,500 ppm dilution (1,000 ppm=0.1%): [formula] [formula] [formula] […]
One mL of each bacterial strain, plus one mL of sialic acid solution (1,000 ppm) were inoculated into test tubes filled with 8 mL of BHI broth. Each test tube was vortexed, incubated for 24 hours at 35° C. with 5% CO2, and then pour plated in BHI agar to obtain a plate count.
This technique was used to determine the density of living (viable) cells in inoculated broth cultures. It involves plating a bacterial sample and counting the resulting colonies after incubation. A serial dilution of the original broth was taken prior to plating. The serial dilution is necessary to reduce the density of organisms in order to create countable plates. Only plates containing between 25 and 250 colonies are considered countable. Cell densities are traditionally recorded as CFU (colony forming unit)/ml. By convention, when 1.0 ml is inoculated onto a plate, the dilution factor (DF) is recorded as tenfold greater. Formula: [formula]
The assays required the use of a pour plate technique. The pour plate technique adds a step to the conventional serial dilution. The 1 ml of dilution is added to a warm emulsion of dilute nutrient (BHI) agar to produce an agar overlay in the petri plates. After incubation, the bacterial growth covers the entire plate but individual cellular movement has been restricted by the soft agar overlay. Each colony formed is assumed to have originated from a single CFU. The plates were gently mixed, inverted, and incubated for 18-24 hour at 35° C. […]

[4] = 24 hours at 35° C. with 5% CO2, listed as Sialic acid
[5] = sialic acid 1,000 ppm, 24 hours at 35° C. with 5% CO2
[6] = sodium bicarbonate pH 4.36, column 1,000 ppm

Row | Structure (SMILES) | Log Difference ([1]; 24 hours at 35° C. with 5% CO2) [log] | Log Difference [1, 4] | plate count [1, 5] | Log Difference ([2]; 24 hours at 35° C. with 5% CO2) [log] | Log Difference [2, 4] | plate count [2, 5] | Log Difference ([3]; 24 hours at 35° C. with 5% CO2) | Log Difference [3, 4] | plate count [3, 5] | pour plate count [1, 6] | pour plate count [2, 6] | pour plate count [3, 6]
1 | CC(=O)N[C@H]1[C@H]([C@H](O)[C@H](O)CO)OC(O)(C(=O)O)C[C@@H]1O (stereo partly drawn) [Sialic Acid, N-acetylneuraminic acid, reference compound] | 0 | did not reduce the bacterial growth | 2.9 × 10^8 | 0 | did not reduce the bacterial growth | 5.4 × 10^7 | ^+1 log | increased the amount of bacterial growth by one log | 1.0 × 10^9 | – | – | –
2 | O=C([O-])O.[Na+] [Sodium Bicarbonate, Sodium bicarbonate] | – | – | – | – | – | – | – | – | – | 1.9 × 10^8 | 8.4 × 10^7 | 6.0 × 10^6
